Legend:
Rat aortic ring = assay: Rat Aortic Ring Assay; format: cell-based; details: for Rat Aortic Ring Assay (10 ug/ml), result in words: observed on the sixth day; for inhibition at 10 µg/mL: Rattus norvegicus, 10 ug/ml, compared with blank control, sixth day
Procedure, shortened: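 1 mm abdominal aortic rings from 6-week-old SD animals embedded in Matrigel, cultured in DMEM/10% FBS with compound at various concentrations (≥3 wells), medium and compound renewed day 3. Microvessel area imaged on day 6 (×100, 3 random rings); inhibition rate scored: ⋆<30-60%, ⋆⋆60-90%, ⋆⋆⋆>90%.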

[1] = tested on: Microvascular Endothelial Cells (MVEC); assay: MTT growth inhibition of MVEC; format: cell-based; details: Endothelial cell, 96 h, 4 days culture with drug, read-out: IG50 on inhibiting growth of MVEC
Description: (§1) In Vitro Anti-Tumor Activity Test
(§2) Put cell suspension into centrifugal tubes with a pipette under sterile conditions, then the cell suspension was centrifuged for 3 minutes at 1300 rpm. Discarded the supernatant lightly and added fresh culture medium. Mixed the cells by pipetting, then transferred the cells into culture flasks, and put them into the CO2 incubator. Changed the culture medium once after 24 hours.
(§3) Human prostate cancer cells (DU145, PC-3) were cultured in a medium containing RPMI1640 basic medium supplemented with 10% heat-inactivated FBS, 100 IU/mL penicillin, 100 μg/mL streptomycin and 1 mmol/L L-glutamine. Human breast carcinoma cells (T47D, MDA-MB231) were cultured in a medium containing RPM11640 basic medium supplemented with 10% heat-inactivated FBS, 5 μg/mL insulin, 100 IU/mL penicillin, 100 μg/mL streptomycin and 1 mmol/L L-glutamine. Human breast carcinoma cells (MCF-7) were cultured in a medium containing DMEM basic medium supplemented with 10% heat-inactivated FBS, 5 μg/mL insulin, 100 IU/mL penicillin, 100 μg/mL streptomycin and […]. Murine Lewis lung cancer cells (LL/2), murine melanoma cells (B16FD) and Microvascular Endothelial Cells (MVEC) were cultured in a medium containing DMEM basic medium supplemented with 10% heat-inactivated FBS, 4.5 g/L glucose, 1.5 g/L NaHCO3, 100 IU/mL penicillin, 100 μg/mL streptomycin and 4 mmol/L L-glutamine. All these cell lines were incubated at 37° C. biochemical incubator with 5% CO2 saturated humidity.
(§4) After resuscitation, the cells were passed for 2-3 generations till they became stable, then they were used for the experiments. Each passage was based on the standard that all cells were spread over the bottoms of culture flasks.
(§5) Cells were digested off from the bottoms of culture flasks with trypsin (0.25%). The cell dissociation buffer was transferred into centrifuge tubes, added medium to stop the digestion, and centrifuged for 3 minutes at 1300 rpm. Discarded the supernatant lightly and added fresh culture medium (5 mL). Mixed the cells by pipetting, then added 10 μL of the cell suspension into the cell counting plate, and adjusted the cell concentration to 2×10^4 cells/mL. Added 100 μL of the cell suspension to all wells on the 96 well plates, except A1 well as the blank control. Put the plates into the biochemical incubator for 24 hours and to make sure the cells grew along the walls.
(§6) The drugs were dissolved in 80 mmol/L DMSO first, and then diluted the drugs with ethanol to 8 mmol/L. The solution was further diluted with the culture medium to different concentrations as 160 μmol/L, 120 μmol/L, 80 μmol/L, 40 μmol/L, 20 μmol/L and 10 μmol/L. Added 100 μL of the drug solution to each well on the 96 well plates. Therefore, the final concentrations of the drugs that were added to the cells were 80 μmol/L, 40 μmol/L, 20 μmol/L, 10 μmol/L and 5 μmol/L, and each concentration were repeated in three parallel wells. Put the culture plates into the biochemical incubator to culture continuously for 4 days.
(§7) Added 50 μL MTT liquids (2 mg/mL) into each well, put the culture plates into the biochemical incubator for 4 h, discarded MTT liquids (TCC), added 200 μL DMSO, then oscillated for 10 minutes on the magnetic oscillator to make sure that the survived cells and the reaction product of MTT were fully dissolved. Detected and recorded the absorbance (OD) values of each well at the wavelength of 570 nm using the microplate reader. The OD values of cells without tested drugs were used as control. The cell growth inhibition rates under each drug concentration were calculated by the following formula. […] Inhibition rate of growth(%)=(1−The absorbance(OD)of cells with tested drugs/The absorbance(OD)of the blank control group)×100%
(§8) The absorbance (OD) of cells with tested drugs: OD value is measured with the test drugs.
(§9) The absorbance (OD) of the blank control group: OD value is measured without the test drugs. […]

[2] = tested on: chorioallantoic membrane vessels; assay: Activity test by chick chorioallantoic membrane method; format: in vivo; details: 5 uL medicine on cellulose membrane, chick embryo, 2 days
Description: After the shell membrane became wet, tore it open with ophthalmological tweezers so to expose the chorioallantoic membrane. • 6) Added 5 uL of selected medicine to a 0.5×0.5 cm cellulose membrane sterilized by high pressure, then set the membrane on the part of the chorioallantoic membrane with fewer vessels • 7) Closed the window, and put the embryos back into the hatch box to hatch for 2 days. • 8) Opened the transparent tape, and then opened the mixed cellulose membrane lightly with a tweezers. Measured the avascular area and took photographs.

VEGFR-2 = VEGFR-2 (Homo sapiens, UniProt P35968); assay: VEGFR-2 inhibition rate test (kinase assay kit, colorimetric ELISA); details: concentration not given
Chain of VEGFR-2 (P35968 20-1356): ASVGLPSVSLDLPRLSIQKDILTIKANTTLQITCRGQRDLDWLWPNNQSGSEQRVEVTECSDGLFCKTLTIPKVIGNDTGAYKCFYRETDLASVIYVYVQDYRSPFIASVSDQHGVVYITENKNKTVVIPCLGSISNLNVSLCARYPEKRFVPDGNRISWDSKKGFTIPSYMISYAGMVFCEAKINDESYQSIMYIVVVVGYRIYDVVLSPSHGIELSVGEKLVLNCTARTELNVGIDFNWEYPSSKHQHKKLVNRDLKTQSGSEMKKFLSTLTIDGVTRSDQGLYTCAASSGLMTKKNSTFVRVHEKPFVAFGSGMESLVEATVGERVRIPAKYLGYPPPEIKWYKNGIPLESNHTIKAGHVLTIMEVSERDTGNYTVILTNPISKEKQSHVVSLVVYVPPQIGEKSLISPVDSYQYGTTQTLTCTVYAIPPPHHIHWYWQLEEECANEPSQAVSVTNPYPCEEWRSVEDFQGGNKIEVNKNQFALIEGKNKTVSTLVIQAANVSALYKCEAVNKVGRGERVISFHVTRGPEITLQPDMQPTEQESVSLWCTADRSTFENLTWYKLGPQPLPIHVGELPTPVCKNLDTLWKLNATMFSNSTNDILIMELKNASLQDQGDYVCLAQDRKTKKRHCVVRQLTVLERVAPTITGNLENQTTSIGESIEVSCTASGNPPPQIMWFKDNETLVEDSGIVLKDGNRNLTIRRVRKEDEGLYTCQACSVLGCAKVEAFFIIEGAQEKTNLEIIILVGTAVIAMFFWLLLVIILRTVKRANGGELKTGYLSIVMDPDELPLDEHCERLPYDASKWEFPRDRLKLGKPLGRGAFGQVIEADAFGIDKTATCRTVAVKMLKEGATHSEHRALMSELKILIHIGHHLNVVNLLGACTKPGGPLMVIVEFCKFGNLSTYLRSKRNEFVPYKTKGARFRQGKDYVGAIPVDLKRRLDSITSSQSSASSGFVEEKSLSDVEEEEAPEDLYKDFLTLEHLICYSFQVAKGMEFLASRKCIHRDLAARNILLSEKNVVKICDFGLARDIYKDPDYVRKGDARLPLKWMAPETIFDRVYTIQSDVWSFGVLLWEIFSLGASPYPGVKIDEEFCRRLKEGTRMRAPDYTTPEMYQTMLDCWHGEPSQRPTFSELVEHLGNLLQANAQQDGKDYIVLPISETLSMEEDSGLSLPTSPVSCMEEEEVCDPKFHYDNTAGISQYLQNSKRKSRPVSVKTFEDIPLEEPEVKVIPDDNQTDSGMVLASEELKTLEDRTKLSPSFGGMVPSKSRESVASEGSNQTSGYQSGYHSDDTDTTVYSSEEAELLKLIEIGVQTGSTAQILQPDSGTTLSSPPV

[3] = tested on: murine melanoma cells (B16F0); assay: MTT growth inhibition of B16F0; format: cell-based; details: Mus musculus, 96 h, 4 days, read-out: IG50 B16F0
Description: as §1, §2, §3, §4
as §5, with “walls. […]” for “walls.”
as §7, with “The OD values of cells without tested drugs were used as control.” left out
as §8, §9

[4] = tested on: Human prostate cancer cells (PC-3); assay: MTT growth inhibition of PC-3; format: cell-based; details: 96 h, PC-3, MTT, 4 days, read-out: IG50 PC-3
Description: as §1, §2, §3, §4
as §5, with “walls. […]” for “walls.”
as §7, with “The OD values of cells without tested drugs were used as control.” left out
as §8, §9

[5] = tested on: Human prostate cancer cells (DU145); assay: MTT growth inhibition of DU145; format: cell-based; details: DU-145, 96 h, 4 days, read-out: IG50 DU145
Description: as §1, §2, §3, §4
as §5, with “walls. […]” for “walls.”
as §7, with “The OD values of cells without tested drugs were used as control.” left out
as §8, §9

[6] = tested on: Human Umbilical Vein Endothelial Cells (HUVEC); assay: MTT growth inhibition of HUVEC; format: cell-based; details: 96 h, 4 days, read-out: IG50 HUVEC
Description: as §1, §2, §4, §5, §6, §7, §8
The absorbance (OD) of the blank control group: OD value is measured without the test drugs.
8) The Growth Inhibition Effect of Compounds on Human Breast Carcinoma Cells (T47D, MDA-MB231, MCF-7), Human Prostate Cancer (DUI45, PC-3), Murine Lewis Lung Cancer Cells (LL/2), Murine Melanoma Cells(B16F0) and Human Umbilical Vein Endothelial Cells (HUVEC) (Table 2).

[7] = tested on: Human breast carcinoma cells (T47D); assay: MTT growth inhibition of T47D; format: cell-based; details: 96 h, 4 days, read-out: IG50 T47D
Description: as §1, §2, §3, §4
as §5, with “walls. […]” for “walls.”
as §7, with “The OD values of cells without tested drugs were used as control.” left out
as §8, §9

[8] = tested on: Murine Lewis lung cancer cells (LL/2); assay: MTT growth inhibition of LL/2; format: cell-based; details: Mus musculus, Lewis lung carcinoma, 96 h; LL/2, MTT, 4 days; read-out: IG50 LL/2
Description: as §1, §2, §3, §4
as §5, with “walls. […]” for “walls.”
as §7, with “The OD values of cells without tested drugs were used as control.” left out
as §8, §9

[9] = tested on: Human breast carcinoma cells (MCF-7); assay: MTT growth inhibition of MCF-7; format: cell-based; details: MCF7, 96 h, MCF-7, MTT, 4 days, read-out: IG50 MCF-7
Description: as §1, §2, §3, §4
(§10) Cells were digested off from the bottoms of culture flasks with trypsin (0.25%). The cell dissociation buffer was transferred into centrifuge tubes, added medium to stop the digestion, and centrifuged for 3 minutes at 1300 rpm. […]
as §7, with “The OD values of cells without tested drugs were used as control.” left out
as §8, §9

[10] = tested on: Human breast carcinoma cells (MDA-MB231); assay: MTT growth inhibition of MDA-MB231; format: cell-based; details: MDA-MB-231, 96 h, 4 days, read-out: IG50 MDA-MB231
Description: as §1, §2, §3, §4, §10
as §7, with “The OD values of cells without tested drugs were used as control.” left out
as §8, §9

Kinase inhibition rate (VEGFR-2) (VEGFR-2)	Structure (SMILES)	Rat Aortic Ring Assay (10 ug/ml), result in words (Rat aortic ring)	IC50 [1]	The inhibitory effect on the growth of chorioallantoic membrane vessels [2]	other results
–	CCCCOc1cc2nnnc(Nc3ccc(F)c(C(F)(F)F)c3)c2cc1OC [Example 23, 6-methoxy-7-n-butoxy-4-(3-trifluoromethyl-4-fluoroanilino)-benzo[d][1,2,3]triazine]	Cell morphology was similar to D10, and cells were linear.	16.1 µM	The vessels covered by paper become thinner and fewer.	–
–	CCOc1cc2nnnc(Nc3cccc(OC(F)(F)F)c3)c2cc1OC [Example 36, 6-methoxy-7-ethoxy-4-(3-trifluoromethoxyanilino)-1,2,3-benzotriazine]	Almost complete inhibition (10 μg/mL)	23.3 µM	One sample exhibits no vascular growth at the zone covered by paper.	–
–	CCOc1cc2nnnc(Nc3ccc(F)c(C(F)(F)F)c3)c2cc1OC [Example 40, 6-methoxy-7-ethoxy-4-(3-trifluoromethyl-4-fluoroanilino)-benzo[d][1,2,3]triazine]	No significant inhibition	31.7 µM	One of the two samples exhibits inhibition	–
–	CCCCCOc1cc2nnnc(Nc3cc(F)cc(F)c3)c2cc1OC [Example 47, 6-methoxy-7-pentyloxy-4-(3,5-difluoroanilino)-benzo[d][1,2,3]triazine]	No significant inhibition	27.9 µM	The vessels in the paper covered zone become fewer,	–
11.22	CCCCCOc1cc2nnnc(Nc3cccc(OC(F)(F)F)c3)c2cc1OC [Example 53, 6-methoxy-7-pentyloxy-4-(3-trifluoromethoxyanilino)-benzo[d][1,2,3]triazine]	No significant inhibition	38 µM	Both of the samples exhibit inhibition ring at the central part of the paper,	–
0.26	COc1cc2c(Nc3cccc(C(F)(F)F)c3)nnnc2cc1OCCCCl [Example 67, 6-methoxy-7-chloropropoxy-4-(3-trifluoromethylanilino)-benzo[d][1,2,3]triazine]	–	21.4 µM	The embryo is dead.	inhibition at 10 µg/mL (Rat aortic ring): > 50%
−14.70	COc1cc2c(Nc3ccc(F)c(Cl)c3)nnnc2cc1OCCCCl [Example 72, 6-methoxy-7-chloropropoxy-4-(3-chloro-4-fluoroanilino)-benzo[d][1,2,3]triazine]	–	7.98 µM	–	IC50 [3]: 5.19 µM; IC50 [4]: 6.91 µM; IC50 [5]: 4.96 µM; IC50 [6]: 3.73 µM; IC50 [7]: 5.04 µM; IC50 [8]: 3.79 µM
9.35	COc1cc2c(Nc3ccc(F)cc3)nnnc2cc1OCCCCl [Example 76, 6-methoxy-7-chloropropoxy-4-(4-fluoroanilino)-benzo[d][1,2,3]triazine]	No significant inhibition	23.1 µM	The vessels become rare at the zone covered by paper.	–
–	Fc1ccc(Nc2nnnc3ccc(Cl)nc23)cc1C(F)(F)F [Example 90, 6-chloro-4-(3-trifluoromethyl-4-fluoroanilino)pyrido[3,2-d][1,2,3]-triazine]	–	10.8 µM	One exhibits no inhibition, and embryo of the other sample is dead.	–
–	Clc1ccc2nnnc(Nc3cccc(Br)c3)c2n1 [Example 92, 6-chloro-4-(3-bromoanilino)-pyrido[3,2-d][1,2,3]triazine]	–	7.24 µM	One of the two samples exhibits significant vascular inhibition.	inhibition at 10 µg/mL (Rat aortic ring): > 50%
5.27	Fc1ccc(Nc2nnnc3ccc(Cl)nc23)cc1 [Example 93, 6-chloro-4-(4-fluoroanilino)pyrido[3,2-d][1,2,3]triazine]	–	11.7 µM	One of the two samples exhibits death of the embryo, and the other exhibits	–
–	Clc1ccc(Nc2nnc(Cc3ccncc3)c3ccccc23)cc1 [PTK787, Vatalanib succinate, reference compound]	–	38.1 µM	There is no vascular growth.	IC50 [3]: 21.4 µM; IC50 [9]: 12.3 µM; IC50 [4]: 63.7 µM; IC50 [5]: 41.3 µM; IC50 [6]: > 40 µM; IC50 [10]: 24.2 µM; IC50 [7]: 36.3 µM; IC50 [8]: 35 µM

Structure (SMILES)	Kinase inhibition rate (VEGFR-2) (VEGFR-2)	Rat Aortic Ring Assay (10 ug/ml), result in words (Rat aortic ring)	IC50 [1]	The inhibitory effect on the growth of chorioallantoic membrane vessels [2]	other results
CCCCOc1cc2nnnc(Nc3ccc(F)c(Cl)c3)c2cc1OC [Example 22, 6-methoxy-7-n-butoxy-4-(3-chloro-4-fluoroanilino)-benzo[d][1,2,3]triazine]	0.80	Cell proliferation and migration were affected. Endothelial cell	17.4 µM	The vessels are fractured at the central part that is covered by paper.	–
